Molecules are shown by their SMILES. Structures can show the parent of a compound that is named as a salt. A value given as a limit tells only on which side of the number the result lay.

CCR8, sequence (P51685 whole entry, the tested form may be a part): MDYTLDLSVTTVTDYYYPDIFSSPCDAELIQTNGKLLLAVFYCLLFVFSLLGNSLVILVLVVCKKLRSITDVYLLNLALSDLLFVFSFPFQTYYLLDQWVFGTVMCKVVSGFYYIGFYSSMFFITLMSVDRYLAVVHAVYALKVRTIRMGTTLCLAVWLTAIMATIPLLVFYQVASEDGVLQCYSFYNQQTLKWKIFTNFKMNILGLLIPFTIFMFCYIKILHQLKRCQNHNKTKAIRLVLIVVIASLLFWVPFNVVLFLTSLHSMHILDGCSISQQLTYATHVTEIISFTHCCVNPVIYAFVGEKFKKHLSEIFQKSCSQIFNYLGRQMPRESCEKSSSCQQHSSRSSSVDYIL

This assay addresses CCR8 (Homo sapiens, UniProt P51685). Put plainly: Tango assay (Tango-CCR8-Gal4-CHO-K1 cells, CCL1-stimulated, ONE-Glo luminescence). The settings on record: Tango Assay IC50, Inhibition of CCR8 Tango cell in vitro.
For `Cc1ccccc1C(=O)Nc1c(C)cc(S(=O)(=O)N[C@H](C)C2CCNCC2)cc1Cl` [Compound 180A, (R)-N-(2-chloro-6-methyl-4-(N-(1-(piperidin-4-yl)eth-yl)sulfamoyl)phen-yl)-2-methylbenzamide hydrochloride], the midpoint of inhibition, the IC50, lay at 2 nM.

With `Cc1ccccc1C(=O)N(C)c1ccc(S(=O)(=O)N[C@H](C)C2CCNCC2)cc1C` [Compound 231A, (R)-N,2-dimethyl-N-(2-methyl-4-(N-(1-(piperidin-4-yl)ethyl)sulfamoyl)phenyl)benzamide hydrochloride], half-maximal inhibition (IC50) was put at 279 nM.

`CCCC(=O)N1CCC(NS(=O)(=O)c2ccc(Nc3ncnc4ccccc34)c3ccccc23)CC1` [Compound 115, N-(1-butyrylpiperidin-4-yl)-4-(quinazolin-4-ylamino)naphthalene-1-sulfonamide] displayed an IC50 of 1500 nM.

In turn, `CC(C)(C)OC(=O)N1CCC(NS(=O)(=O)c2ccc(-c3nc4ccccc4[nH]3)cc2)CC1` [Compound 102, tert-butyl 4-(4-(1H-benzo[d]imidazol-2-yl)phenylsulfonamido) piperidine-1-carboxylate] displayed an IC50 of over 10000 nM.

Molecule `CN1CCCN(C(=O)C23CC(NS(=O)(=O)c4ccc5ccccc5c4)(C2)C3)CC1` [Compound 100, N-(3-(4-methyl-1,4-diazepane-1-carbonyl)bicyclo[1.1.1]pentan-1-yl)naphthalene-2-sulfonamide] had an IC50 of over 10000 nM.

`CC(=O)Nc1cc(C)c(S(=O)(=O)N[C@H](C)C2CCNCC2)cc1C` [Compound 172A, (R)-N-(2,5-dimethyl-4-(N-(1-(piperidin-4-yl)ethyl)sulfamoyl)phen-yl)acetamide hydrochloride] showed an IC50 of over 10000 nM.

`COc1cc2c(cc1NS(=O)(=O)c1ccc(NC(=O)c3ccccc3C)c3ccccc13)N(C(C)=O)CC2` [Compound 39, N-(4-(N-(1-acetyl-5-methoxyindolin-6-yl)sulfamoyl)naphthalen-1-yl)-2-methylbenzamide] gave an IC50 of over 10000 nM.

`Cc1cc(S(=O)(=O)N[C@H](C)C2CCN(C)CC2)ccc1NC(=O)c1ccc(F)cc1C` [Compound 276, (R)-4-fluoro-2-methyl-N-(2-methyl-4-(N-(1-(1-methylpiperidin-4-yl)ethyl)sulfamoyl)phenyl) benzamide hydrochloride] came in with an IC50 of 10 nM.

Take `Cc1cc(S(=O)(=O)N[C@H](C)C2CCNCC2)ccc1NC(=O)c1cccs1` [Compound 210A, (R)-N-(2-methyl-4-(N-(1-(piperidin-4-yl)ethyl)sulfamoyl)phenyl)thiophene-2-carboxamide hydrochloride]: inhibition was half-maximal at 161 nM (IC50).

`Cc1cc(S(=O)(=O)NC(C)C23CCN(CC2)CC3)ccc1NC(=O)c1ccccc1C` (stereo not shown) [Compound 241, 2-methyl-N-(2-methyl-4-(N-(1-(quiuclidin-4-yl)ethyl)sulfamoyl)phen-yl)benzamide] had an IC50 of 256 nM.

`CC(=O)N1CC(C)(C)c2ccc(NS(=O)(=O)c3ccc(NC(=O)c4ccccc4C)c4ccccc34)cc21` [Compound 40, N-(4-(N-(1-acetyl-3,3-dimethylindolin-6-yl)sulfamoyl)naphthalen-1-yl)-2-methylbenzamide] had an IC50 of over 10000 nM.

On to `Cc1cc(S(=O)(=O)N[C@H](C)C2CCN(C(=O)OC(C)(C)C)CC2)c(Cl)cc1NC(=O)c1ccccc1C` [Compound 168, (R)-tert-butyl 4-(1-(2-chloro-5-methyl-4-(2-methylbenzamido)phen-ylsulfonamido)ethyl)pi-peridine-1-carboxylate], for which the IC50 amounted to 1300 nM.

As for `Cc1ccccc1C(=O)Nc1ccc(S(=O)(=O)NC(C)C(C)C)c2ccccc12` (stereo not shown) [Compound 81, 2-methyl-N-(4-(N-(3-methylbutan-2-yl)sulfamoyl)naphthalen-1-yl)benzamide], the IC50 is 142 nM.

Turning to `CCCN1CCN(c2ccc(OC)c(NS(=O)(=O)c3ccc(NC(=O)c4ccccc4C)c4ccccc34)c2)CC1` [Compound 3, N-(4-(N-(2-methoxy-5-(4-propylpiperazin-1-yl)phenyl)sulfamoyl)naphthalen-1-yl)-2-methylbenzamide], the IC50 is over 10000 nM.

In turn, `CN1CCN(C(=O)N2CCC(NS(=O)(=O)c3ccc(-c4nc5ccccc5[nH]4)cc3)CC2)CC1` [Compound 103, 4-(1H-benzo[d]imidazol-2-yl)-N-(1-(4-methylpiperazine-1-carbonyl)piperidin-4-yl)benzenesulfonamide] registered an IC50 of 310 nM.

In turn, `Cc1ccccc1C(=O)Nc1ccc(S(=O)(=O)NC2CCNc3ccccc32)c2ccccc12` (stereo not shown) [Compound 30, 2-methyl-N-(4-(N-(1,2,3,4-tetrahydroquinolin-4-yl)sulfamoyl)naphthalen-1-yl)benzamide] displayed an IC50 of 73 nM.

For `Cc1cc(S(=O)(=O)N[C@H](C)C2CCNCC2)ccc1NC(=O)c1ccccc1C(F)(F)F` [Compound 249A, (R)-N-(2-methyl-4-(N-(1-(piperidin-4-yl)ethyl)sulfamoyl)phenyl)-2-(trifluoromethyl) benzamide hydrochloride], the IC50 turned out to be 12 nM.

Regarding `CC(NS(=O)(=O)c1ccc2nc(Cc3ccccc3)[nH]c2c1)C1CCCCC1` (stereo not shown) [Compound 144, 2-benzyl-N-(1-cyclohexylethyl)-1H-benzo[d]imidazole-6-sulfonamide], the IC50 amounted to 2100 nM.

For the molecule `CCCC(=O)N1CCC(NS(=O)(=O)c2ccc(Nc3nccc(C)n3)c3ccccc23)CC1` [Compound 117, N-(1-butyrylpiperidin-4-yl)-4-((4-methylpyrimidin-2-yl)amino)naphthalene-1-sulfonamide], the IC50 amounted to 1650 nM.

Regarding `Cc1ccccc1C(=O)Nc1ccc(S(=O)(=O)NC2CCN(C)c3ccccc32)c2ccccc12` (stereo not shown) [Compound 32, 2-methyl-N-(4-(N-(1-methyl-1,2,3,4-tetrahydroquinolin-4-yl)sulfamoyl)naphthalen-1-yl)benzamide], the midpoint of inhibition, the IC50, lay at 89 nM.

For `Cc1ccccc1C(=O)Nc1cc(Cl)c(S(=O)(=O)N[C@H](C)C2CCN(C)CC2)cc1Cl` [Compound 306, (R)-N-(2,5-dichloro-4-(N-(1-(1-methylpiperidin-4-yl)ethyl)sulfamoyl)phenyl)-2-methylbenzamide hydrochloride], the IC50 is 6 nM.

Take `Cc1cc(S(=O)(=O)N[C@H](C)C2CCN(C)CC2)ccc1NC(c1ccccc1)C(F)(F)F` (stereo partly drawn) [Compound 300, 3-methyl-N-((R)-1-(1-methylpiperidin-4-yl)ethyl)-4-((2,2,2-trifluoro-1-phenylethyl)amino)benzene-sulfonamide]: the midpoint of inhibition, the IC50, lay at 2300 nM.

In turn, `Cc1ccc(C(=O)Nc2ccc(S(=O)(=O)N[C@H](C)C3CCNCC3)cc2C)c(C)c1` [Compound 259A, (R)-2,4-dimethyl-N-(2-methyl-4-(N-(1-(piperidin-4-yl)ethyl)sulfamoyl)phenyl)benzamide hydrochloride] yielded an IC50 of 3 nM.

The molecule `COC(=O)CN1CCCC(C(C)NS(=O)(=O)c2ccc(NC(=O)c3ccccc3C)c3ccccc23)C1` (single isomer, unassigned) [Compound 19B, methyl 2-(3-(1-(4-(2-methylbenzamido)naph-thalene-1-sulfonamido)ethyl)piper-idin-1-yl)acetate] gave an IC50 of over 10000 nM.

Molecule `CC(NS(=O)(=O)c1ccc2[nH]c(=O)[nH]c2c1)C1CCCCC1` (stereo not shown) [Compound 80, N-(1-cyclohexylethyl)-2-oxo-2,3-dihydro-1H-benzo[d]imidazole-5-sulfonamide] returned an IC50 of over 10000 nM.

In general, IC50 refers to the midpoint of a concentration-inhibition curve. Higher therefore signals lower potency.

These data come from patent US12552753B2, “Methods and compositions for targeting Tregs using CCR8 inhibitors” (Nanjing Immunophage Biomedical Co., Ltd., priority 2020, dated 2026).
